System: cerebral ischemia (infarcts) in patients with aneurysmal subarachnoid hemorrhage
Experiment: clinical study of Tempol on prevention of cerebral ischemia during treatment of aneurysms (MRI-DWI infarct count and size)
Type: in vivo
Details: human patients, 1-300 mg/kg orally before and after surgical or endovascular treatment; MRI-DWI 1-3 days and 6 weeks post-treatment
Experimental: This example describes a clinical study to determine the effect of Tempol on the prevention of cerebral ischemia during treatment of aneurysms in human patients that have bled. Patients, having suffered aneurysmal subarachnoid hemorrhaging, undergo magnetic resonance imaging (MRI-DWI) to count the number of infarcts and measure their size. Either 1-300 mg/kg of Tempol or a placebo are orally administered to the human patients. Patients undergo treatment for subarachnoid hemorrhaging (e.g., surgical or endovascular). After surgery, 1-300 mg/kg of Tempol or a placebo are orally administered to the patients. 1-3 days post-treatment, follow up MRI-DWI is used to count and measure the size of infarcts. The number and size of the infarcts is also measured 6 weeks post-treatment using MRI-DWI.

SMILES: CC1(C)CC(O)CC(C)(C)N1[O] [Tempol, 4-hydroxy-2,2,6,6-tetramethylpiperidine-1-oxyl]
- number of infarcts (MRI-DWI) versus placebo: fewer
- size of infarcts (MRI-DWI) versus placebo: smaller sized

Reference: US20100240700A1, “PROPHYLACTIC PRETREATMENT WITH ANTIOXIDANTS” (MITOS PHARMACEUTICALS, INC., priority 2003, published 2010)
